Measurements: PubChem BioAssay (NCI)
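These data come from cells grown in 96-well plates and exposed to compound for 48 hours at five concentrations. GI50 is the concentration that inhibits growth by half. At the TGI there is no net growth.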 *1 amine or outer side, *2 acyl side, *3 side chain or, on linkers, in order; H or OH if unused. Where a SMILES comes first, the peptide text is derived from it. Bridges are numbered along the chain shown (N, C = ends). Roman numbers before positions name the chains, in order. [ ]: non-standard residue; d: D form. Actinocin(9to1) = Cc1c2oc3c(C)ccc(C(=O)[*:1])c3nc-2c(C(=O)[*:2])c(N)c1=O; NMeV = CN[CH](C(=O)O)C(C)C; Sar = CNCC(=O)O

Key:
Assay in all cases: DTP human tumour cell line panel, 48 h
A498 renal = tested on: A498 renal
CAKI-1 renal = tested on: CAKI-1 renal
DU-145 prostate = tested on: DU-145 prostate
HCC-2998 colon = tested on: HCC-2998 colon
HL-60(TB) leukemia = tested on: HL-60(TB) leukemia
HOP-92 NSCLC = tested on: HOP-92 NSCLC
M14 melanoma = tested on: M14 melanoma
MDA-MB-231 breast = tested on: MDA-MB-231 breast
MDA-N = tested on: MDA-N
OVCAR-8 ovarian = tested on: OVCAR-8 ovarian
PC-3 prostate = tested on: PC-3 prostate
SF-539 CNS = tested on: SF-539 CNS
SN12C renal = tested on: SN12C renal
SW-620 colon = tested on: SW-620 colon
UACC-257 melanoma = tested on: UACC-257 melanoma
UACC-62 melanoma = tested on: UACC-62 melanoma
UO-31 renal = tested on: UO-31 renal

Compound	TGI (A498 renal)	TGI (CAKI-1 renal)	TGI (DU-145 prostate)	TGI (HCC-2998 colon)	TGI (HL-60(TB) leukemia)	TGI (HOP-92 NSCLC)	TGI (M14 melanoma)	TGI (MDA-MB-231 breast)	TGI (MDA-N)	TGI (OVCAR-8 ovarian)	TGI (PC-3 prostate)	TGI (SF-539 CNS)	TGI (SN12C renal)	TGI (SW-620 colon)	TGI (UACC-257 melanoma)	TGI (UACC-62 melanoma)	TGI (UO-31 renal)	GI50 (A498 renal)	GI50 (DU-145 prostate)	GI50 (HL-60(TB) leukemia)
COc1ccccc1CC(=O)C(O)(C(F)(F)F)C(F)(F)F	> 100 µM	> 100 µM	> 100 µM	> 100 µM	> 100 µM	> 100 µM	> 100 µM	> 100 µM	> 100 µM	> 100 µM	> 100 µM	> 100 µM	> 100 µM	> 100 µM	> 100 µM	> 100 µM	> 100 µM	–	–	–
Cc1ccc(S(=O)(=O)N2C3C=CC(C3)[C@@H]2C(Cl)(Cl)Cl)cc1 (some centres not stated)	47.5 µM	> 68.5 µM	> 81.2 µM	48.7 µM	> 47 µM	38.1 µM	39.1 µM	33.3 µM	86.9 µM	> 63.3 µM	> 70.3 µM	30 µM	44.2 µM	44.9 µM	60.5 µM	35.2 µM	59.3 µM	11.8 µM	–	–
CC1=C/C(=N\NC(N)=S)C(C(O)(C(F)(F)F)C(F)(F)F)C(C)(C)C1 (configuration not stated)	> 10 µM	> 10 µM	> 10 µM	> 10 µM	> 10 µM	> 10 µM	> 10 µM	> 10 µM	> 10 µM	> 10 µM	> 10 µM	> 10 µM	> 10 µM	> 10 µM	> 10 µM	> 10 µM	–	–	–	–
CCOC(=O)/C(C#N)=C/c1coc2cc(C)cc(C)c2c1=O	> 100 µM	> 100 µM	> 100 µM	> 100 µM	> 100 µM	> 100 µM	> 100 µM	> 100 µM	> 100 µM	> 100 µM	> 100 µM	> 100 µM	> 100 µM	> 100 µM	> 100 µM	> 100 µM	> 100 µM	–	–	–
COc1ccc(C2c3cc4c(cc3OC3(OC)COC(=O)C23)OCO4)c(OC)c1 (configuration not stated)	> 92.9 µM	> 100 µM	> 100 µM	> 100 µM	9.31 µM	97.6 µM	25.8 µM	99.5 µM	5.24 µM	> 100 µM	> 100 µM	21.5 µM	> 100 µM	> 100 µM	> 100 µM	> 85.9 µM	> 100 µM	–	–	–
CCOC(=O)CCC(NC(=O)C(N)Cc1ccc(N(CCCl)CCCl)cc1)C(=O)OCC (configuration not stated)	> 100 µM	3.08 µM	2.34 µM	2.23 µM	0.586 µM	1.59 µM	1.39 µM	3.94 µM	4.98 µM	2.4 µM	7.9 µM	3.38 µM	5.72 µM	5.3 µM	5.2 µM	1.4 µM	2.92 µM	–	–	–
COc1ccc(S(=O)(=O)n2c3c(c4ccccc42)[C@@H]2[C@@H](CCCN2C(=O)CS(=O)c2ccc(C)cc2)[C@H](Cl)C3)cc1 (some centres not stated)	> 100 µM	> 100 µM	> 100 µM	> 100 µM	> 100 µM	> 100 µM	> 100 µM	> 100 µM	> 100 µM	> 100 µM	> 100 µM	> 100 µM	> 100 µM	> 100 µM	> 100 µM	> 100 µM	> 100 µM	–	–	–
Cc1c2oc3c(C)ccc(C(=O)NC4C(=O)NC(C(C)C)C(=O)N5CCCC5C(=O)N(C)CC(=O)N(C)C(C(C)C)C(=O)OC4C)c3nc-2c(C(=O)NC2C(=O)NC(C(C)C)C(=O)N3CCCC3C(=O)N(C)CC(=O)N(C)C(C(C)C)C(=O)OC2C)c(N)c1=O (configuration not stated) (I: TVP[Sar][NMeV] / II: TVP[Sar][NMeV]; ester I:1-I:C, II:1-II:C; linker I:N-II:N via Actinocin(9to1); configuration not given here)	0.0152 µM	> 0.316 µM	> 1 µM	0.0272 µM	0.0237 µM	0.0203 µM	0.0207 µM	> 0.231 µM	0.0094 µM	0.00772 µM	0.0317 µM	0.00299 µM	0.0379 µM	0.105 µM	0.0231 µM	0.00192 µM	0.12 µM	–	1.29 nM	0.288 nM
CCOC(=O)c1csc(NC(=O)CN2CCCC2)n1	> 100 µM	> 100 µM	> 100 µM	> 100 µM	> 100 µM	> 100 µM	> 100 µM	> 100 µM	> 100 µM	> 100 µM	> 100 µM	> 100 µM	–	> 100 µM	> 100 µM	> 100 µM	> 100 µM	–	–	–
Cc1[nH]c(=O)nc2sc(=NC3CCCCC3)n(C3CCCCC3)c(=O)c12	> 100 µM	> 100 µM	> 100 µM	> 100 µM	> 100 µM	> 100 µM	> 100 µM	> 100 µM	> 100 µM	> 100 µM	> 100 µM	> 100 µM	> 100 µM	> 100 µM	> 100 µM	> 100 µM	> 100 µM	–	–	–
COCOC1/C=C/CCCCC(=O)C(C)C#CC1 (configuration not stated)	24.6 µM	13.7 µM	25.4 µM	20.2 µM	4.33 µM	8.46 µM	14.5 µM	15.6 µM	27 µM	17.7 µM	24 µM	11.7 µM	19 µM	3.56 µM	19.5 µM	15.8 µM	18.9 µM	–	–	–
CC(N)/C(N)=N/O (configuration not stated)	> 100 µM	> 100 µM	> 100 µM	> 100 µM	> 100 µM	> 100 µM	> 100 µM	> 100 µM	> 100 µM	> 100 µM	> 100 µM	> 100 µM	> 100 µM	> 100 µM	> 100 µM	> 100 µM	> 100 µM	–	–	–
CC(C)(CN1CCCCC1)C(/C=C/c1ccc(Cl)cc1)=N\NC(=O)N/N=C(/C=C/c1ccc(Cl)cc1)C(C)(C)CN1CCCCC1	20.4 µM	7.3 µM	18 µM	16.3 µM	> 19.9 µM	8.72 µM	11.1 µM	7.21 µM	10.7 µM	23.1 µM	19.7 µM	18.9 µM	14.6 µM	7.67 µM	17.1 µM	12.1 µM	9.03 µM	–	–	–
O=C1C(Br)=C(Br)C(=O)c2ccc(=O)ccc21	> 100 µM	64.2 µM	> 100 µM	> 100 µM	13.7 µM	34.8 µM	32.7 µM	35.9 µM	44.8 µM	50.8 µM	> 100 µM	45 µM	33.7 µM	42.7 µM	58.3 µM	39.4 µM	34.9 µM	–	–	–
NC(Cc1ccccc1)C(=O)NC(Cc1ccccc1)NC(=O)C(Cc1c[nH]c2ccccc12)C(=O)O (configuration not stated)	> 100 µM	> 100 µM	> 100 µM	> 100 µM	> 100 µM	> 100 µM	> 100 µM	> 100 µM	> 100 µM	> 100 µM	> 100 µM	> 100 µM	> 100 µM	> 100 µM	> 100 µM	> 100 µM	> 100 µM	–	–	–
COc1ccc(C(C)NNC(=O)c2ccncc2)cc1OC (configuration not stated)	> 100 µM	> 100 µM	> 100 µM	> 100 µM	> 100 µM	> 100 µM	> 100 µM	> 100 µM	> 100 µM	> 100 µM	> 100 µM	> 100 µM	> 100 µM	> 100 µM	> 100 µM	> 100 µM	> 100 µM	–	–	–
O=c1c(F)cn(Cc2c(Cl)cccc2Cl)c(=O)n1Cc1c(Cl)cccc1Cl	> 31.6 µM	> 31.6 µM	> 100 µM	> 31.6 µM	> 31.6 µM	> 31.6 µM	> 31.6 µM	> 31.6 µM	> 31.6 µM	> 31.6 µM	> 31.6 µM	> 31.6 µM	> 31.6 µM	> 31.6 µM	> 31.6 µM	> 31.6 µM	> 31.6 µM	–	–	–
O=C1c2ccccc2C(=O)c2c(/C=C\N3CCCCC3)ccnc21	31.8 µM	39.5 µM	2.96 µM	11.9 µM	27.8 µM	32.1 µM	1.26 µM	73.3 µM	0.352 µM	17.5 µM	28 µM	9.65 µM	4.14 µM	4.48 µM	3.22 µM	1.58 µM	23.4 µM	–	–	–
C/C(=N\NC(N)=S)c1ccc2c(c1)Sc1ccccc1O2	8.63 µM	4.37 µM	> 100 µM	4.65 µM	> 100 µM	28 µM	> 100 µM	> 100 µM	2.31 µM	7.16 µM	28.8 µM	4.79 µM	> 100 µM	> 100 µM	> 100 µM	12.3 µM	28.3 µM	–	–	–
COc1ccc(C(SCCO)(c2ccccc2)c2ccc(OC)cc2)cc1	27.1 µM	40.6 µM	30.6 µM	15.2 µM	47.2 µM	29.1 µM	23.1 µM	25.4 µM	20.3 µM	43 µM	28.9 µM	31.2 µM	30.5 µM	35.6 µM	30.5 µM	24.8 µM	31.7 µM	–	–	–
CC(C)=C[C@H]1C[C@H](C)[C@H]2CC[C@H](C)c3c2c1c(C)c1ncoc31	34.9 µM	35.5 µM	33.9 µM	35.8 µM	44.8 µM	31.4 µM	29.3 µM	39.3 µM	34.2 µM	36.8 µM	35.2 µM	32.5 µM	35.6 µM	36 µM	33.5 µM	32.9 µM	31.5 µM	–	–	–
CCN(CC)CCCNC(=O)c1cc(-c2nccn2C)nc2ccccc12	> 100 µM	> 100 µM	> 100 µM	> 100 µM	> 100 µM	> 100 µM	> 100 µM	> 100 µM	> 100 µM	> 100 µM	> 100 µM	> 100 µM	> 100 µM	> 100 µM	> 100 µM	> 100 µM	> 100 µM	–	–	–
O=C1NC2(CCN(CCc3ccccc3)CC2)Oc2ccccc21	> 100 µM	> 100 µM	> 100 µM	> 100 µM	> 100 µM	69.4 µM	49.9 µM	> 100 µM	> 100 µM	> 100 µM	> 100 µM	> 100 µM	> 100 µM	> 100 µM	> 100 µM	> 100 µM	> 100 µM	–	–	–
